From US9249125B2, “Pyrazole derivatives as p38 MAP inhibitors” (RESPIVERT LIMITED, priority 2012, dated 2016)
pIC50: −log10 of the molar value.

What was measured:
[1] = test system: Poly I:C-induced ICAM-1 expression in BEAS2B cells; assay: Poly I:C-induced ICAM-1 expression in BEAS2B cells; type: cell-based; details: Homo sapiens, BEAS-2B, read-out: Poly IC induced ICAM1 in BEAS2B IC50
Procedure: Poly I:C is used in these studies as a simple, RNA virus mimic. Poly I:C-Oligofectamine mixture (1 μg/mL Poly I:C, ±2% Oligofectamine, 25 uL) (Invivogen Ltd., San Diego, Calif., and Invitrogen, Carlsbad, Calif., respectively) is transfected into BEAS2B cells (human bronchial epithelial cells, ATCC). Cells are pre-incubated with final concentrations of test compounds for 2 hr and the level of ICAM1 expression on the cell surface is determined by cell-based ELISA. At a time point 18 hr after poly I:C transfection, cells are fixed with 4% formaldehyde in PBS (100 μL) and then endogenous peroxidase is quenched by the addition of washing buffer (100 μL, 0.05% Tween in PBS: PBS-Tween) containing 0.1% sodium azide and 1% hydrogen peroxide. Cells are washed with wash-buffer (3×200 μL). and after blocking the wells with 5% milk in PBS-Tween (100 μL) for 1 hr, the cells are incubated with anti-human ICAM-1 antibody (50 μL) (Cell Signaling Technology, Danvers, Mass.) in 1% BSA PBS overnight at 4° C.
The cells are washed with PBS-Tween (3×200 μL) and incubated with the secondary antibody (100 μL) (HRP-conjugated anti-rabbit IgG, Dako Ltd., Glostrup, Denmark). The cells are then incubated with of substrate (50 μL) for 2-20 min, followed by the addition of stop solution (50 μL, 1N H2SO4). The ICAM-1 signal is detected by reading and reading the absorbance at 450 nm against a reference wavelength of 655 nm using a spectrophotometer. The cells are then washed with PBS-Tween (3×200 μL) and total cell numbers in each well are determined by reading absorbance at 595 nm after Crystal Violet staining (50 μL of a 2% solution in PBS) and elution by 1% SDS solution (100 μL) in distilled water. The measured OD 450-655 readings are corrected for cell number by dividing with the OD595 reading in each well.

[2] = molecular target: p38 MAPKα (Homo sapiens (Human), UniProt Q16539); assay: p38 MAPKα enzyme inhibition (FRET, Z-LYTE); type: biochemical
Procedure: (§1) The enzyme inhibitory activities of compounds disclosed herein are determined by FRET using synthetic peptides labelled with both donor and acceptor fluorophores (Z-LYTE, Invitrogen Ltd., Paisley, UK).
The inhibitory activities of test compounds against the p38 MAPKα isoform (MAPK14: Invitrogen), are evaluated indirectly by determining the level of activation/phosphorylation of the down-stream molecule, MAPKAP-K2. The p38 MAPKα protein (80 ng/mL, 2.5 μL) is mixed with the test compound (2.5 μL of either 4 μg/mL, 0.4 μg/mL, 0.04 μg/mL or 0.004 μg/mL) for 2 hr at RT. […] The mixture is incubated for 1 hr at RT. Development reagent (protease, 5 μL) is added for 1 hr prior to detection in a fluorescence microplate reader (Varioskan® Flash, ThermoFisher Scientific).
(§2) In all cases, the site-specific protease cleaves non-phosphorylated peptide only and eliminates the FRET signal. Phosphorylation levels of each reaction are calculated using the ratio of coumarin emission (donor) over fluorescein emission (acceptor), for which low ratios indicate high phosphorylation and high ratios indicate low phosphorylation levels.

[3] = molecular target: Syk (Homo sapiens (Human), UniProt P43405); assay: Syk enzyme inhibition (FRET, Z-LYTE); type: biochemical
Procedure: as §1
(§3) The relevant enzyme (3000 ng/mL or 2000 ng/mL respectively, 2.5 μL) is incubated with the test compound (either 4 μg/mL, 0.4 μg/mL, 0.04 μg/mL, or 0.004 μg/mL, 2.5 μL each) for 2 hr at RT. The FRET peptides (8 μM, 2.5 μL), and appropriate ATP solutions (2.5 μL, 800 μM for c-Src, and 60 μM ATP for Syk) are then added to the enzymes/compound mixtures and incubated for 1 hr. Development reagent (protease, 5 μL) is added for 1 hr prior to detection in a fluorescence microplate reader (Varioskan® Flash, ThermoFisher Scientific).
as §2

[4] = molecular target: cSrc (Homo sapiens (Human), UniProt P12931); assay: c-Src enzyme inhibition (FRET, Z-LYTE); type: biochemical
Procedure: as §1, §3, §2

[5] = test system: d-U937 cells; assay: Cell viability: MTT assay; type: cell-based, human; details: 1 μg/mL
Procedure: Differentiated U937 cells are pre-incubated with each test compound (final concentration 1 μg/mL or 10 μg/mL in 200 μL media indicated below) under two protocols: the first for 4 hr in 5% FCS RPMI1640 media and the second in 10% FCS RPMI1640 media for 24 h. The supernatant is replaced with new media (200 μL) and MTT stock solution (10 μL, 5 mg/mL) is added to each well. After incubation for 1 hr the media are removed, DMSO (200 μL) is added to each well and the plates are shaken lightly for 1 hr prior to reading the absorbance at 550 nm. The percentage loss of cell viability is calculated for each well relative to vehicle (0.5% DMSO) treatment. Consequently an apparent increase in cell viability for drug treatment relative to vehicle is tabulated as a negative percentage.

[6] = test system: LPS-induced IL-8 release in d-U937 cells; assay: LPS-induced IL-8 release in d-U937 cells; type: cell-based; details: Homo sapiens, dU937, read-out: LPS Induced Release of Cytokine in d-937 Cells IL-8 IC50
Procedure: U937 cells, a human monocytic cell line, are differentiated into macrophage-type cells by incubation with PMA (100 ng/mL) for 48 to 72 hr. Cells are pre-incubated with final concentrations of test compound for 2 hr and are then stimulated with LPS (0.1 μg/mL) (from E. coli: O111:B4, Sigma) for 4 hr. The supernatant is collected for determination of TNFα and IL-8 concentrations by sandwich ELISA (Duo-set, R&D systems). […] The relative 50% effective concentration (REC50) is determined from the resultant concentration-response curve. The inhibition of IL-8 production is calculated at each concentration of test compound by comparison with vehicle control. […] (b) LPS-Induced TNFα/IL-8 Release in PBMC Cells

[7] = molecular target: GSK3α (Homo sapiens (Human), UniProt P49840); assay: GSK 3α enzyme inhibition (FRET, Z-LYTE); type: biochemical
Procedure: as §1
The inhibitory activities of compounds of the invention against the GSK 3α enzyme isoform (Invitrogen), are evaluated by determining the level of activation/phosphorylation of the target peptide. The GSK3-α protein (500 ng/mL, 2.5 μL) is mixed with the test compound (2.5 μL at either 4 μg/mL, 0.4 μg/mL, 0.04 μg/mL, or 0.004 μg/mL) for 2 hr at RT. The FRET peptide (8 μM, 2.5 μL), which is a phosphorylation target for GSK3α, and ATP (40 μM, 2.5 μL) are then added to the enzyme/compound mixture and the resulting mixture incubated for 1 hr. Development reagent (protease, 5 μL) is added for 1 hr prior to detection in a fluorescence microplate reader (Varioskan® Flash, ThermoFisher Scientific).
as §2

Chain of cSrc (P12931 whole entry, looked up): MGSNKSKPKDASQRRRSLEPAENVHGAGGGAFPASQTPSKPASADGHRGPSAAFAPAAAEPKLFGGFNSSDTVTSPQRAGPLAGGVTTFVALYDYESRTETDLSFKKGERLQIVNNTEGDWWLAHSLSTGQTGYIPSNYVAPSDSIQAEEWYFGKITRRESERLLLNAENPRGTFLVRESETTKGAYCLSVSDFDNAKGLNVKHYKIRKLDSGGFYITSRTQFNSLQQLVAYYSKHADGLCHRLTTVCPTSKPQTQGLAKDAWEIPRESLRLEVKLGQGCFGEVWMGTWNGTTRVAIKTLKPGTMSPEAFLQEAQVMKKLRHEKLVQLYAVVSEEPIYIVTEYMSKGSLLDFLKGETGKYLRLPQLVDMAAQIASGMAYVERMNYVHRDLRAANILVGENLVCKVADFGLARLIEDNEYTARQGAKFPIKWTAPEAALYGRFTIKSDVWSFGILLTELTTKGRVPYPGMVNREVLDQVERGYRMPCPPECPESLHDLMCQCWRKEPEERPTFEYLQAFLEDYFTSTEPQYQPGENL
Chain of p38 MAPKα (Q16539 whole entry): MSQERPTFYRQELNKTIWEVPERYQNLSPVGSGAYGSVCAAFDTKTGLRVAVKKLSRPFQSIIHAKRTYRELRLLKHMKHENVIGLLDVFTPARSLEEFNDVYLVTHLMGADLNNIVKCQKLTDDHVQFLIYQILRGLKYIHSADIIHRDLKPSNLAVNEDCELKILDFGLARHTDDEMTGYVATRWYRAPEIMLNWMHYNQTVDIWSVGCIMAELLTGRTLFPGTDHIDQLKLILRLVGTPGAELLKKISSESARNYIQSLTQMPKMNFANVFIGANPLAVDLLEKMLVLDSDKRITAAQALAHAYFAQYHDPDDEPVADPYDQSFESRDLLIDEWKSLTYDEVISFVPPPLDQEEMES
Chain of GSK3α (P49840 whole entry): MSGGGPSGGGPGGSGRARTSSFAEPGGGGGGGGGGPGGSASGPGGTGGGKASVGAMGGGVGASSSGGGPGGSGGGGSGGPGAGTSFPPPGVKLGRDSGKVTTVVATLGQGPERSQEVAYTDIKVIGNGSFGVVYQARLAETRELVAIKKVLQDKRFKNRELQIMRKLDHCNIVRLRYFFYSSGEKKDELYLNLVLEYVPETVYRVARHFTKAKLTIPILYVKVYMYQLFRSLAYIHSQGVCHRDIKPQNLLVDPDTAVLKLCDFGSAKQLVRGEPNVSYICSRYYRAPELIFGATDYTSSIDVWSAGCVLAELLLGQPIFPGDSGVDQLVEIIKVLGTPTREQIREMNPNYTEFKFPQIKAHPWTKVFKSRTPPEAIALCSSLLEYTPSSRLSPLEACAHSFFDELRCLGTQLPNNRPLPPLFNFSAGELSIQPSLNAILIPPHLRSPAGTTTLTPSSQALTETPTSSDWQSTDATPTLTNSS

Row | pIC50 [2] | pIC50 [3] | pIC50 [4] | pIC50 [6] | pIC50 [7] | SMILES | pIC50 [1] | MTT Assay Cell viability at time point in d-U937 cells 4 h [5] | MTT Assay Cell viability at time point in d-U937 cells 24 h [5]
1 | 7.40 | > 9.00 | 8.52 |  | 5.52 | Cc1cc(Nc2cc(Oc3ccc(NC(=O)Nc4cc(C(C)(C)C)nn4-c4ccc(OCCN5CCOCC5)cc4)c4ccccc34)ccn2)cc2cn[nH]c12 [Example 68] | 8.12 | −ve (−ve and +ve indicate that the value is below and above respectively, the no significant effect threshold, defined as 30% inhibition at 1 μg/mL at the time point indicated.) | −ve (−ve and +ve indicate that the value is below and above respectively, the no significant effect threshold, defined as 30% inhibition at 1 μg/mL at the time point indicated.)
2 | 7.16 | 8.40 | 8.30 | 8.59 | 5.74 | Cc1cc(Nc2nccc(Oc3ccc(NC(=O)Nc4cc(C(C)(C)C)nn4-c4ccc(OCCN5CCOCC5)cc4)c4ccccc34)n2)cc2cn[nH]c12 [Example 73, 1-(3-(tert-butyl)-1-(4-(2-morpholinoethoxy)phenyl)-1H-pyrazol-5-yl)-3-(4-((2-((7-methyl-1H-indazol-5-yl)amino)pyrimidin-4-yl)oxy)naphthalen-1-yl)urea] | 8.66 | −ve (−ve and +ve indicate that the value is below and above respectively, the no significant effect threshold, defined as 30% inhibition at 1 μg/mL at the time point indicated.) | −ve (−ve and +ve indicate that the value is below and above respectively, the no significant effect threshold, defined as 30% inhibition at 1 μg/mL at the time point indicated.)
3 | 7.70 | 9.00 | 9.00 | 8.80 | 5.92 | Cc1cc(Nc2nccc(Oc3ccc(NC(=O)Nc4cc(C(C)(C)C)nn4-c4ccc(OCCN5CCOCC5)nc4)c4ccccc34)n2)cc2cn[nH]c12 [Example 91, 1-(3-(tert-butyl)-1-(6-(2-morpholinoethoxy)pyridin-3-yl)-1H-pyrazol-5-yl)-3-(4-((2-((7-methyl-1H-indazol-5-yl)amino)pyrimidin-4-yl)oxy)naphthalen-1-yl)urea] | 8.72 | −ve (−ve and +ve indicate that the value is below and above respectively, the no significant effect threshold, defined as 30% inhibition at 1 μg/mL at the time point indicated.) | −ve (−ve and +ve indicate that the value is below and above respectively, the no significant effect threshold, defined as 30% inhibition at 1 μg/mL at the time point indicated.)

Second part, the compound before the results:

Row | SMILES | pIC50 [2] | pIC50 [3] | pIC50 [4] | pIC50 [6] | pIC50 [7] | pIC50 [1] | MTT Assay Cell viability at time point in d-U937 cells 4 h [5] | MTT Assay Cell viability at time point in d-U937 cells 24 h [5]
4 | COc1ccc(-n2nc(C3CCOC3)cc2NC(=O)Nc2ccc(Oc3ccnc(Nc4ccc5[nH]ncc5c4)n3)c3ccccc23)cc1 (stereo not drawn) [Example 8, 1-(4-((2-((1H-Indazol-5-yl)amino)pyrimidin-4-yl)oxy)naphthalen-1-yl)-3-(1-(4-methoxyphenyl)-3-(tetrahydrofuran-3-yl)-1H-pyrazol-5-yl)urea] | 8.15 | 8.10 | 8.70 | 8.44 | 6.08 | 7.77 | −ve (−ve and +ve indicate that the value is below and above respectively, the no significant effect threshold, defined as 30% inhibition at 1 μg/mL at the time point indicated.) | −ve (−ve and +ve indicate that the value is below and above respectively, the no significant effect threshold, defined as 30% inhibition at 1 μg/mL at the time point indicated.)
5 | CC(C)c1cc(NC(=O)Nc2ccc(Oc3ccnc(Nc4ccc5[nH]ncc5c4)c3)c3ccccc23)n(-c2cccc(OCCN3CCOCC3)c2)n1 [Example 51] | 8.70 | > 9.00 | > 9.00 |  | 5.31 | 7.62 | −ve (−ve and +ve indicate that the value is below and above respectively, the no significant effect threshold, defined as 30% inhibition at 1 μg/mL at the time point indicated.) | −ve (−ve and +ve indicate that the value is below and above respectively, the no significant effect threshold, defined as 30% inhibition at 1 μg/mL at the time point indicated.)
6 | CC(C)(C)c1cc(NC(=O)Nc2ccc(Oc3ccnc(Nc4ccc5[nH]ncc5c4)c3)c3ccccc23)n(-c2cccc(OCCN3CCOCC3)c2)n1 [Example 52] | 7.66 | 7.74 | 8.52 |  | 5.30 | 7.99 | −ve (−ve and +ve indicate that the value is below and above respectively, the no significant effect threshold, defined as 30% inhibition at 1 μg/mL at the time point indicated.) | −ve (−ve and +ve indicate that the value is below and above respectively, the no significant effect threshold, defined as 30% inhibition at 1 μg/mL at the time point indicated.)
7 | Cc1cc(Nc2cc(Oc3ccc(NC(=O)Nc4cc(C(C)(C)C)nn4-c4ccc(OCCN(C)C)cc4)c4ccccc34)ccn2)cc2cn[nH]c12 [Example 58] | > 9.00 |  | > 9.00 |  | 5.90 | 8.08 | −ve (−ve and +ve indicate that the value is below and above respectively, the no significant effect threshold, defined as 30% inhibition at 1 μg/mL at the time point indicated.) | −ve (−ve and +ve indicate that the value is below and above respectively, the no significant effect threshold, defined as 30% inhibition at 1 μg/mL at the time point indicated.)
